# Experimental data published in ChEMBL document CHEMBL1201862, “PubChem BioAssay data set” (2004).
# Active and inactive are the calls of the source.
# Tests used:
# Interleukin-8 [1] = target: T1, Interleukin-8 (Homo sapiens, UniProt P10145); test: Dose Response confirmation of uHTS small molecule hits for cystic fibrosis induced NFkb Inhibitors in a TNFa-induced IL8 counterscreen.; format: functional; settings: read-out: IC50_Mean
# Interleukin-8 [2] = target: T1, Interleukin-8; test: Dose Response confirmation of uHTS small molecule hits for cystic fibrosis induced NFkb Inhibitors in a PAF-induced IL8 counterscreen.; format: functional; settings: read-out: IC50_Mean
# Galanin receptor type 3 = Galanin receptor type 3 (Homo sapiens, UniProt O60755); test: Fluorescence-based cell-based primary high throughput dose response assay to identify antagonists of the Galanin Receptor 3 (GalR3).; format: functional
# cells = format: functional, cell-based; settings: HEK-CNG
# Nonstructural protein 1 = Nonstructural protein 1 (Influenza A virus, UniProt Q194T2); format: functional, Influenza A virus (A/California/07/2009(H1N1))
# [3] = bead-based luminescence quenchers, dual-tagged ARNT – biochemical, AlphaScreen, cherry-pick, artefact control for ARNT-TACC3 interaction inhibitor project, dose response (AID 651705); format: functional;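 note: AlphaScreen bead proximity signal that flags compounds interfering with the detection technology; potency reflects signal decrease which marks the compound as an assay artifact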
# [4] = mouse fibroblast viability loss – cell-based, cherry-pick samples, set 2, cytotoxicity control for T. cruzi growth inhibitor project, dose response (AID 651817); format: functional; settings: NIH3T3
# [5] = intracellular Trypanosoma cruzi inhibitors in host cells – cell-based, plate reader, cherry-pick samples, set 3, dose response (AID 651818); format: functional;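 note: compounds incubated with infected cells for about four days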
# [6] = inhibition of ARNT PAS-B/TACC3 complex formation – biochemical, AlphaScreen, cherry-picked samples, confirmation (AID 651703); format: functional, Homo sapiens;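 note: His-tagged ARNT PAS-B domain paired with GST-TACC3 E629A dimer coactivator fragment; potency of inhibitors that break up the complex and lower AlphaScreen signal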
# [7] = target: Adenosylmethionine-8-amino-7-oxononanoate aminotransferase (Mycobacterium tuberculosis, UniProt P9WQ81); test: Mycobacterium tuberculosis BioA enzyme inhibitor Measured in Biochemical System Using Plate Reader - 2163-02_Inhibitor_Dose_CherryPick_Activity.; format: functional, Mycobacterium tuberculosis UT205
# [8] = target: T2, ATP-dependent translocase ABCB1 (Homo sapiens, UniProt P08183); test: inhibition of BCRP-mediated JC-1 efflux – Ig-MXP3 cells, flow cytometry, set 2, dose response (AID 504566); format: functional; settings: read-out: EC50_MICROM_;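 note: flow cytometry median green fluorescence of retained JC-1 dye; potency of efflux pump inhibition measured as rising substrate retention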
# [9] = target: T2, ATP-dependent translocase ABCB1; test: P-gp JC-1 efflux blockade concentration-response – Jurkat-DNR cells, flow cytometry, set 2, dose response (AID 504569); format: functional; settings: read-out: EC50_MICROM_;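 note: potency of pump inhibitors that raise cellular JC-1 green fluorescence up to the nicardipine level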
# HeLa = test: viability loss in HeLa cells – cell-based, ATP luminescence, cherry-pick samples, cytotoxicity control, dose response (AID 687004); format: functional; settings: Homo sapiens
# [10] = blockers of HIV-1 ZM109 envelope-driven cell-cell fusion – HeLa effector, CEM target cells, luciferase, cherry-pick, dose response (AID 652058); format: functional, cell-based;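 note: luciferase signal from HIV-1 Env mediated cell-cell fusion of effector and target cells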
# Protein Wnt-3a = Protein Wnt-3a (Mus musculus, UniProt P27467); test: SAR analysis of small molecule antagonists of Gli-SUFU in a Wnt3a luminescent reporter assay.; format: functional
# [11] = HEK293T viability loss – cell-based, ATP luminescence, dry powder, Set6, cytotoxicity control, dose response (AID 743142); format: functional; settings: HEK293
# [12] = viability loss in A549 lung cancer cells – cell-based, CellTiter-Glo luminescence, dry powder, set 3, cytotoxicity control, dose response (AID 743146); format: functional
# T2 sequence (P08183 whole entry): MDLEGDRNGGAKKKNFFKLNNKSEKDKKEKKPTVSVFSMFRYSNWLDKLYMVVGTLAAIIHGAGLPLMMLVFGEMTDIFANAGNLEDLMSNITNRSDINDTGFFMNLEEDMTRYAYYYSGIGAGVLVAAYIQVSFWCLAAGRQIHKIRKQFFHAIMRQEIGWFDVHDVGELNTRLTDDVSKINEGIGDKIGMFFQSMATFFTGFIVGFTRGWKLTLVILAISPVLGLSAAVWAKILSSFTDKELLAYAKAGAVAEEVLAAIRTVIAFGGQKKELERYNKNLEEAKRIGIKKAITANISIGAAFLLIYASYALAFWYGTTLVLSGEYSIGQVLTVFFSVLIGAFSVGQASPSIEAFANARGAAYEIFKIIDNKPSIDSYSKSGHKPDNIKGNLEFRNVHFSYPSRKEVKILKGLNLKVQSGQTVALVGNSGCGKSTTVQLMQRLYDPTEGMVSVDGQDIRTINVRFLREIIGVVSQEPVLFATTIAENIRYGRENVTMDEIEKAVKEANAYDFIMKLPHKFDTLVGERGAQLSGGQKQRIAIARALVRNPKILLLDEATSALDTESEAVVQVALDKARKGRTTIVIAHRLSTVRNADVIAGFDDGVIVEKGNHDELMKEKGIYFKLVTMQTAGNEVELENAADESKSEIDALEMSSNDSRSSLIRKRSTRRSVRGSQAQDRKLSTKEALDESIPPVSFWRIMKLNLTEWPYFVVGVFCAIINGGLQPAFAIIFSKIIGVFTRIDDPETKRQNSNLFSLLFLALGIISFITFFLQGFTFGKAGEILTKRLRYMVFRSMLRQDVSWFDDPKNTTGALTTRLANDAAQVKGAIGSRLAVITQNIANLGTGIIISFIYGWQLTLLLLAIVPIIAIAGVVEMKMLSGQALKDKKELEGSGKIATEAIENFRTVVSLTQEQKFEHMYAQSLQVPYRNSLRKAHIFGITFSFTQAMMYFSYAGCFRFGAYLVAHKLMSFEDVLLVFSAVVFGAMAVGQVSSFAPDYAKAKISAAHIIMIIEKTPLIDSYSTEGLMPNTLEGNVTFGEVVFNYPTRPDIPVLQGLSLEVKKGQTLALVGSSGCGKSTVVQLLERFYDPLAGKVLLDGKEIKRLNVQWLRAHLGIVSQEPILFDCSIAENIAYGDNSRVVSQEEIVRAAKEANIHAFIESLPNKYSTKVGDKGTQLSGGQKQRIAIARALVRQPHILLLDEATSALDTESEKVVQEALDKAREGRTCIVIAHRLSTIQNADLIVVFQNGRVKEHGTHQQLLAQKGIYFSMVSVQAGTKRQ
# T1 sequence (P10145 whole entry): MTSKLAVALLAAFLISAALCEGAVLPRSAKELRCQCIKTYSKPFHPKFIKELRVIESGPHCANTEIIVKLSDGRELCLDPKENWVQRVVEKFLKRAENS
# Nonstructural protein 1, sequence (Q194T2 whole entry): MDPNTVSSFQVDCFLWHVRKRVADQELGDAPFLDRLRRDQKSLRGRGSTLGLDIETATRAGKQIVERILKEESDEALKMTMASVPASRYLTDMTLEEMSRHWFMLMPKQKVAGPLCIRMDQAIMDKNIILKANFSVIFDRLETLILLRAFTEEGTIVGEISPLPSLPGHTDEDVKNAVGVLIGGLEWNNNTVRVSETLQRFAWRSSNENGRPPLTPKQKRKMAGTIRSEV
# Adenosylmethionine-8-amino-7-oxononanoate aminotransferase, sequence (P9WQ81 whole entry): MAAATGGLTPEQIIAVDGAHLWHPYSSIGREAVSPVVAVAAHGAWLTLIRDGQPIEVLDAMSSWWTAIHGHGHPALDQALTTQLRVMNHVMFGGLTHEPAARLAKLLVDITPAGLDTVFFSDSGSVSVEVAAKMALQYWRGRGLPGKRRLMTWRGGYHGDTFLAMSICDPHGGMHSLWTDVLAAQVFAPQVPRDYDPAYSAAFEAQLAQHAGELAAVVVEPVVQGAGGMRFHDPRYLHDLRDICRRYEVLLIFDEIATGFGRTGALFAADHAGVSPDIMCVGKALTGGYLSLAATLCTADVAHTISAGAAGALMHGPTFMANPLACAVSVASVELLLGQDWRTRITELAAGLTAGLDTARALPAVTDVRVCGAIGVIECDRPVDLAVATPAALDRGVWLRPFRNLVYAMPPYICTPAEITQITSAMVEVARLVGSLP
# Galanin receptor type 3, sequence (O60755 whole entry): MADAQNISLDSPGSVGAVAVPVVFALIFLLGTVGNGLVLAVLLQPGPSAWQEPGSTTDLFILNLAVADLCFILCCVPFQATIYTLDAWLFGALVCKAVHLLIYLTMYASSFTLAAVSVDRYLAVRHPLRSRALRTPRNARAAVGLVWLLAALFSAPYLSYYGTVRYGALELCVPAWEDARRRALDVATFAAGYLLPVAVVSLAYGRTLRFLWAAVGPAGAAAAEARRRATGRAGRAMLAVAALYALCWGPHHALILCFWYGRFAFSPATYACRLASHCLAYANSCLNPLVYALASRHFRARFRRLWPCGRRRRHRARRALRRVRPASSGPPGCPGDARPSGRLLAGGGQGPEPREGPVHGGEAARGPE
# Protein Wnt-3a, sequence (P27467 whole entry): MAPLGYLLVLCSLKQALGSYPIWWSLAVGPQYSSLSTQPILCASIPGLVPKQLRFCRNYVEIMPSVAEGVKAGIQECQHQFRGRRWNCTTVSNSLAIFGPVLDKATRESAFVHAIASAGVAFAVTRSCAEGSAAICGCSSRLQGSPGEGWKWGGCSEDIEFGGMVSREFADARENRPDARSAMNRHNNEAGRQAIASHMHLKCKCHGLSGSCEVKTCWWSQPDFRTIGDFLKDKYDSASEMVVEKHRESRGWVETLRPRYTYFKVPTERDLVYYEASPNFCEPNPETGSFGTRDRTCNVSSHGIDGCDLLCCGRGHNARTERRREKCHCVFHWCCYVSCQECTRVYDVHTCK
smiles,measurement,setting,value
CC1C(c2ccccc2)OCCN1C(=S)Nc1ccc(S(=O)(=O)N2CCCCC2)cc1 (configuration not stated),IC50,Interleukin-8 [1],4.48 µM (active)
same,IC50,Interleukin-8 [2],3.69 µM (active)
CC(=O)OCC1OC(n2c(S)c(C#N)c(-c3ccccc3)c(C#N)c2=O)C(OC(C)=O)C(OC(C)=O)C1OC(C)=O (configuration not stated),IC50,Galanin receptor type 3,0.503 µM (active)
same,EC50,cells,> 29.9 µM (inactive)
CCOc1cccc(/C=N/NC(=O)c2cccnc2)c1O,IC50,Nonstructural protein 1,15.5 µM (active)
same,AC50,[3],101 µM (active)
C[C@@H]1CN([C@H](C)CO)C(=O)Cc2cc(NS(=O)(=O)c3ccc(Cl)cc3)ccc2O[C@@H]1CN(C)S(=O)(=O)c1ccc(Cl)cc1,AC50,[4],39 µM (inactive)
same,AC50,[5],3.39 µM (active)
O=C(NC[C@H]1[C@H](c2ccccc2)[C@H](CO)N1Cc1ccccn1)C1CCC1,AC50,[6],129 µM (active)
C[C@@H]1CN([C@@H](C)CO)C(=O)c2cc(C#Cc3cccnc3)cnc2O[C@H]1CN(C)S(C)(=O)=O,AC50,[7],6.02 µM (active)
Cc1cccc(-c2cc3nc(-c4ccccc4)cc(N4CCN(C(=O)c5ccco5)CC4)n3n2)c1,EC50,[8],3.22 µM (active)
same,EC50,[9],3.77 µM (active)
COc1ccccc1C(=O)Nc1ccc2c(c1)OC[C@H](C)N(C(C)=O)C[C@H](C)[C@H](OC)CN(C)C2=O,AC50,HeLa,44.9 µM (active)
same,AC50,[10],33.4 µM (active)
COc1cccc(C(=O)Nc2cc(N3CCCCC3)ncn2)c1,IC50,Protein Wnt-3a,> 21.8 µM (inactive)
COc1ccc(C(=O)NCCC(=O)N[C@@H]2CCCc3ccccc32)cc1,AC50,[11],3.54 µM (active)
same,AC50,[12],> 52 µM (inactive)
